US20010053778A1, “Pharmaceutical compositions of glycogen phosphorylase inhibitors” (priority 2000, published 2001)

Columns and labels:
[1] = in vitro dissolution test, microcentrifuge method, PBS (Drug 1 compositions); type: physicochemical; details: for AUC90: area under aqueous concentration versus time curve after 90 minutes; for AUC90 / C1200 / Cmax, 90: PBS, dosage 2000 μg/mL; for C1200: concentration at 1200 minutes; for Cmax, 90: maximum concentration of Drug 1 in solution during first 90 minutes; for AUC / Drug Concentration: PBS pH 6.5, 37° C.
Protocol: In vitro dissolution tests were performed to evaluate the performance of the amorphous dispersions of Examples 1-9 relative to the performance of Controls 1 and 2. The dissolution performance of the SDD of Example 1 was evaluated in an in vitro dissolution test using a microcentrifuge method. In this test, 14.4 mg of the SDD of Example 1 was added to a microcentrifuge tube. The tube was placed in a 37° C. sonicating bath, and 1.8 mL phosphate buffered saline (PBS) at pH 6.5 and 290 mOsm/kg was added. The samples were quickly mixed using a vortex mixer for about 60 seconds. The samples were centrifuged at 13,000 G at 37° C. for 1 minute. The resulting supernatant solution was then sampled and diluted 1:6 (by volume) with methanol and then analyzed by high-performance liquid chromatography (HPLC). The contents of the tubes were mixed on the vortex mixer and allowed to stand undisturbed at 37° C. until the next sample was taken. Samples were collected at 4, 10, 20, 40, 90, and 1200 minutes.
The performance of Example Nos. 2-8 was likewise evaluated in in vitro dissolution tests using the same microcentrifuge method described above. The dosage for each of these tests was 2000 μg/ml.
The performance of the amorphous dispersions of Example 9 were tested using the same microcentrifuge method, except that 2.5 grams of the coated beads were added to 50 mL of PBS solution (resulting in a dosage of 2000 μg/mL).
For Controls 1 and 2, in vitro dissolution tests were also performed using the same microcentrifuge method except that 3.6 mg of either crystalline or amorphous Drug 1 was used.
These compositions were evaluated in in vitro dissolution tests using the procedures outlined in Example 10. The quantities of drug and polymer noted above were each added to a microcentrifuge tube, to which was added 1.8 ml of PBS solution. The tube was vortexed immediately after adding the PBS solution.
A coating solution comprising 7.5 wt % HPMCAS-MF dissolved in 92.5 wt % solvent (5 wt % water in acetone) was prepared and spray-coated onto Nu-Core Beads (45/60 mesh), producing a thin coating of the polymer on the surface of the beads resulting in beads containing 12.2 wt % HPMCAS-MF. Samples of these beads (2.4 gm) were then mixed with 100 mg of amorphous Drug 1 (resulting in a drug:polymer ratio of 1:3 or 25 wt % Drug 1) and evaluated in an in vitro dissolution test using the procedures outlined in Example 10.
A composition was formed by blending 50 wt % of the SDD of Example 2 (containing 50 wt % Drug 1 and 50 wt % HPMCAS-MF) with 50 wt % HPMCAS-MF. This composition was evaluated in a dissolution test as described in Example 10.

[2] = in vitro dissolution test, microcentrifuge method, model fasted duodenal solution (Drug 2 compositions); type: physicochemical; design: AUC: concentration or dose not given beside the values; details: for AUC90: aqueous area under the curve after 90 minutes; for AUC90 / C1200 / Cmax, 90 / AUC: MFDS; for AUC90 / C1200 / Cmax, 90: dosage 1000 μg/mL; for C1200: concentration at 1200 minutes; for Cmax, 90: maximum concentration of Drug 2 in solution during first 90 minutes; for Drug Concentration: MFDS pH 6.5, 37° C.
Protocol: In vitro dissolution tests were performed to evaluate the performance of the amorphous dispersions of Examples 12-17 relative to the performance of Controls 4 and 5. The SDD of Example 12 was evaluated in an in vitro dissolution test using a microcentrifuge method. In this test, 3600 μg of the SDD of Example 12 was added to a microcentrifuge tube. The tube was placed in a 37° C. sonicating bath, and 1.8 mL of model fasted duodenal solution (MFDS), comprising phosphate buffered saline with 14.7 mM sodium taurocholic acid and 2.8 mM of 1-palmitoyl-2-oleyl-sn-glycero-3-phosphocholine, pH 6.5, 290 mOsm/kg, was added. […] The samples were quickly mixed using a vortex mixer for about 60 seconds. The samples were centrifuged at 13,000 G at 37° C. for 1 minute. The resulting supernatant solution was then sampled and diluted 1:6 (by volume) with methanol and then analyzed by high-performance liquid chromatography (HPLC). The contents of the tubes were mixed on the vortex mixer and allowed to stand undisturbed at 37° C. until the next sample was taken. Samples were collected at 4, 10, 20, 40, 90, and 1200 minutes.
For Controls 4 and 5, in vitro dissolution tests were performed using the procedures described above except that 1.8 mg of crystalline and amorphous Drug 2 was used, respectively.

AUC90 [1] | C1200 [1] [µg/mL] | Cmax, 90 [1] [µg/mL] | AUC ([1]; time 0 min) [µg·min/mL] | Drug Concentration ([1]; time 0 min) [µg/mL] | AUC ([1]; time 4 min) | Drug Concentration ([1]; time 4 min) [µg/mL] | AUC ([1]; time 10 min) | Drug Concentration ([1]; time 10 min) [µg/mL] | AUC ([1]; time 20 min) | Drug Concentration ([1]; time 20 min) [µg/mL] | AUC ([1]; time 40 min) | Drug Concentration ([1]; time 40 min) [µg/mL] | AUC ([1]; time 90 min) | Drug Concentration ([1]; time 90 min) [µg/mL] | AUC ([1]; time 1200 min) | Drug Concentration ([1]; time 1200 min) [µg/mL] | AUC90 [2] | C1200 [2] [µg/mL] | Cmax, 90 [2] [µg/mL] | Structure (SMILES) | further results
12,800 min* μg/mL | 125 | 149 | 0 | 0 | 260 µg·min/mL | 130 | 1,100 min* μg/mL | 149 | 2,500 min* μg/mL | 139 | 5,400 min* μg/mL | 149 | 12,800 min* μg/mL | 147 | 163,800 min* μg/mL | 125 |  |  |  | O=C(N[C@@H](Cc1ccccc1)[C@@H](O)C(=O)N1C[C@@H](O)[C@@H](O)C1)c1cc2cc(Cl)ccc2[nH]1 [Control 1] | 
20,600 min* μg/mL | 203 | 586 | 0 | 0 | 1,200 min* μg/mL | 586 | 4,400 min* μg/mL | 473 | 7,800 min* μg/mL | 220 | 11,700 min* μg/mL | 182 | 20,600 min* μg/mL | 167 | 225,900 min* μg/mL | 203 |  |  |  | O=C(N[C@@H](Cc1ccccc1)[C@@H](O)C(=O)N1C[C@@H](O)[C@@H](O)C1)c1cc2cc(Cl)ccc2[nH]1 [Control 2] | AUC ([1]; time 180 min): 35,200 min* μg/mL; Drug Concentration ([1]; time 180 min): 158 µg/mL
 |  |  |  |  |  |  |  |  |  |  |  |  |  |  |  |  | 5,900 min* μg/mL | 102 | 82 | O=C(N[C@@H](Cc1ccccc1)C(=O)N1CC(O)C1)c1cc2cc(Cl)ccc2[nH]1 [Control 4] | AUC ([2]; time 0 min): 0 µg·min/mL; Drug Concentration ([2]; time 0 min): 0 µg/mL; AUC ([2]; time 4 min): 90 µg·min/mL; Drug Concentration ([2]; time 4 min): 45 µg/mL; AUC ([2]; time 10 min): 357 µg·min/mL; Drug Concentration ([2]; time 10 min): 44 µg/mL; AUC ([2]; time 20 min): 842 µg·min/mL; Drug Concentration ([2]; time 20 min): 53 µg/mL; AUC ([2]; time 40 min): 2,100 min* μg/mL; Drug Concentration ([2]; time 40 min): 72 µg/mL; AUC ([2]; time 90 min): 5,900 min* μg/mL; Drug Concentration ([2]; time 90 min): 82 µg/mL; AUC ([2]; time 1200 min): 108,100 min* μg/mL; Drug Concentration ([2]; time 1200 min): 102 µg/mL
 |  |  |  |  |  |  |  |  |  |  |  |  |  |  |  |  | 20,800 min* μg/mL | 370 | 268 | O=C(N[C@@H](Cc1ccccc1)C(=O)N1CC(O)C1)c1cc2cc(Cl)ccc2[nH]1 [Control 5] | AUC ([2]; time 0 min): 0 µg·min/mL; Drug Concentration ([2]; time 0 min): 0 µg/mL; AUC ([2]; time 4 min): 302 µg·min/mL; Drug Concentration ([2]; time 4 min): 151 µg/mL; AUC ([2]; time 10 min): 1,400 min* μg/mL; Drug Concentration ([2]; time 10 min): 203 µg/mL; AUC ([2]; time 20 min): 3,500 min* μg/mL; Drug Concentration ([2]; time 20 min): 225 µg/mL; AUC ([2]; time 40 min): 8,100 min* μg/mL; Drug Concentration ([2]; time 40 min): 238 µg/mL; AUC ([2]; time 90 min): 20,800 min* μg/mL; Drug Concentration ([2]; time 90 min): 268 µg/mL; AUC ([2]; time 1200 min): 374,900 min* μg/mL; Drug Concentration ([2]; time 1200 min): 370 µg/mL
